Measured values published in US20050158709A1, “Methods for determinging the influence of protein binding on antiretroviral activity” (priority 2002, published 2005).
Read-outs that look alike come from different tables or passages of the source.

Assays:
HIV [1] = settings: in vitro; increasing AAG; cited from earlier work
R13025 = test: EC50 against viral strain R13025; format: cell-based, HIV; settings: Human immunodeficiency virus 1
Procedure: (§1) As an example, protease inhibitors have clinically relevant concentrations in a range of around 500 nM and more, sub-therapeutic concentrations in the range of around 50 nM to around 500 nM, and in vitro testing concentrations in the range of less than around or 50 nM.

R13028 = test: EC50 against viral strain R13028; format: cell-based, HIV; settings: Human immunodeficiency virus 1
Procedure: as §1

LAI = test: EC50 against viral strain LAI; format: cell-based, HIV; settings: Human immunodeficiency virus 1
Procedure: as §1

wild type HIV-1 (LAI) = test: Cell-based antiviral assay (MT4 cells, MTT method) in the presence of human plasma or serum proteins, wild type HIV-1; settings: for ratio between EC50 in presence of indicated protein and EC50 in presence of 10% FCS: HS 50% / ratio between EC50 in presence of indicated protein and EC50 in presence of 10% FCS: AAG 1 mg/mL / ratio between EC50 in presence of indicated protein and EC50 in presence of 10% FCS: FCS (10%) / ratio between EC50 in presence of indicated protein and EC50 in presence of 10% FCS: HSA 45 mg/mL: wild type HIV-1 (LAI), median of at least two determinations; for ratio between EC50 in presence of indicated protein and EC50 in presence of 10% FCS: HS 50%: 50% human serum; for ratio between EC50 in presence of indicated protein and EC50 in presence of 10% FCS: AAG 1 mg/mL: AAG 1 mg/mL and 10% FCS; for ratio between EC50 in presence of indicated protein and EC50 in presence of 10% FCS: FCS (10%): FCS 10% (reference); for ratio between EC50 in presence of indicated protein and EC50 in presence of 10% FCS: HSA 45 mg/mL: HSA 45 mg/mL and 10% FCS
Procedure: (§2) The influence of AAG, Human Serum Albumin (HSA) or Human Serum (HS) on the activity of antiretrovirals was measured in a cell-based antiviral assay. A phenotypic assay was performed to measure the ability of resistant virus strains to grow in the presence of each drug of interest, and in the presence of various combinations of plasma or serum proteins at different concentrations: • 50% heat-inactivated human serum (HS) with or without 10% fetal calf serum (FCS) • 1 mg/mL AAG and 10% FCS • 45 mg/mL human serum albumin (HSA) and 10% FCS
(§3) Anti-HIV activity was determined in HIV-or mock-infected MT4 cells by the MTT method as described by Pauwels et al (1988), J.Virol.Meth.20:[…], and Hertogs et al (1998), Antimicrob.Ag.Chemother.42:269-27. Briefly, recombinant or non-recombinant virus, with a specific resistance profile, were grown in cell culture to obtain viral stocks of known concentration. Susceptibility testing of the viral stocks in the presence of various antiviral agents and in the presence of plasma or serum proteins, and a detection system based on MTT determined to which extent agents inhibited replication of the virus strains.
(§4) Virus strains used for these studies had different origins: • HIV strains obtained by in vitro selection in the presence of various antivirals • Recombinant clinical isolates constructed according to the Antivirogram™ method as described by Hertogs et al (1998).

[2] = system: various HIV-1 strains (resistant strains); format: cell-based; settings: for EC50 ratio (human plasma or serum protein vs 10% FCS), concentration range 50 nM-5 nM: EC50 50 nM-5 nM (in vitro testing concentrations, wild type HIV); for EC50 ratio (human plasma or serum protein vs 10% FCS), concentration range 500 nM-50 nM: strains with EC50 500 nM-50 nM (sub-therapeutic concentrations)
Procedure: as §2, §3, §4
Virus strains with various levels of resistance against each of the PIs were used in similar experiments with AAG.

R13485 = test: EC50 against viral strain R13485; format: cell-based, HIV; settings: Human immunodeficiency virus 1
Procedure: as §1

R13273 = test: EC50 against viral strain R13273; format: cell-based, HIV; settings: Human immunodeficiency virus 1
Procedure: as §1

R13036 = test: EC50 against viral strain R13036; format: cell-based, HIV; settings: Human immunodeficiency virus 1
Procedure: as §1

R13127 = test: EC50 against viral strain R13127; format: cell-based, HIV; settings: Human immunodeficiency virus 1
Procedure: as §1

R13031 = test: EC50 against viral strain R13031; format: cell-based, HIV; settings: Human immunodeficiency virus 1
Procedure: as §1

HIV [3] = settings: extensive protein binding prevented intracellular diffusion; cited from earlier work
HIV [4] = settings: cited from earlier work
R13020 = test: EC50 against viral strain R13020; format: cell-based, HIV; settings: Human immunodeficiency virus 1
Procedure: as §1

T13025 = test: EC50 against viral strain T13025; format: cell-based, HIV; settings: Human immunodeficiency virus 1
Procedure: as §1

T13127 = test: EC50 against viral strain T13127; format: cell-based, HIV; settings: Human immunodeficiency virus 1
Procedure: as §1

[5] = protein not given, AAG, median of at least two determinations
[6] = strains with EC50 5 μM-500 nM (clinically relevant concentrations), protein not given, AAG, median of at least two determinations

Structure (SMILES) | EC50 (R13025) | EC50 (LAI) | EC50 ratio (human plasma or serum protein vs 10% FCS), concentration range 5 μM-500 nM [2] | EC50 ratio (human plasma or serum protein vs 10% FCS), concentration range 50 nM-5 nM [2, 5] | EC50 ratio (human plasma or serum protein vs 10% FCS), concentration range 500 nM-50 nM [2, 5] | ratio between EC50 in presence of indicated protein and EC50 in presence of 10% FCS: HS 50% (wild type HIV-1 (LAI)) | ratio between EC50 in presence of indicated protein and EC50 in presence of 10% FCS: AAG 1 mg/mL (wild type HIV-1 (LAI)) | ratio between EC50 in presence of indicated protein and EC50 in presence of 10% FCS: FCS (10%) (wild type HIV-1 (LAI)) | ratio between EC50 in presence of indicated protein and EC50 in presence of 10% FCS: HSA 45 mg/mL (wild type HIV-1 (LAI)) | also measured
CC(C)[C@H](NC(=O)N(C)Cc1ccccn1)C(=O)N[C@@H](Cc1ccccc1)[C@H](O)[C@H](O)[C@H](Cc1ccccc1)NC(=O)[C@@H](NC(=O)N(C)Cc1ccccn1)C(C)C [A77003] | – | – | – | – | – | – | – | – | – | antiviral efficacy as the concentration of α1-acid glycoprotein (AAG) was increased (HIV [1]): decreased
CC(C)(C)NC(=O)[C@@H]1CN(Cc2cccnc2)CCN1C[C@@H](O)C[C@@H](Cc1ccccc1)C(=O)N[C@H]1c2ccccc2C[C@H]1O [Indinavir, indinavir] | ~2 µM | ~0.036 µM | – | – | – | – | – | – | – | EC50 (R13028): ~0.261 µM; effect of AAG and HS on potency against wild-type HIV-1 (wild type HIV-1 (LAI); wild-type HIV-1, presence of AAG and HS): unaffected
Cc1cccc(C)c1OCC(=O)N[C@@H](Cc1ccccc1)[C@@H](O)C[C@H](Cc1ccccc1)NC(=O)[C@H](C(C)C)N1CCCNC1=O [Lopinavir, lopinavir] | – | ~0.009 µM | 4 | 64 | 20 | 5 | 26 | 1 | 5 | EC50 (R13485): ~0.367 µM; EC50 (R13273): ~2 µM
Cc1c(O)cccc1C(=O)N[C@@H](CSc1ccccc1)[C@H](O)CN1C[C@H]2CCCC[C@H]2C[C@H]1C(=O)NC(C)(C)C [Nelfinavir, nelfinavir] | – | ~0.032 µM | – | 11 | 9 | 25 | 31 | 1 | 7 | EC50 (R13028): ~0.254 µM; EC50 ratio (human plasma or serum protein vs 10% FCS), concentration range 5 μM-500 nM [2, 6]: 5; EC50 (R13036): ~1 µM; EC50 (R13127): ~8 µM
CC(C)c1nc(CN(C)C(=O)N[C@H](C(=O)N[C@@H](Cc2ccccc2)C[C@H](O)[C@H](Cc2ccccc2)NC(=O)OCc2cncs2)C(C)C)cs1 [Ritonavir, ritonavir] | ~2 µM | ~0.036 µM | – | – | – | – | – | – | – | EC50 (R13031): ~0.407 µM
CC(C)CN(C[C@@H](O)[C@H](Cc1ccccc1)NC(=O)[C@H](CC(N)=O)NC(=O)c1ccc2ccccc2n1)C(=O)NC(C)(C)C [SC-52151, telinavir] | – | – | – | – | – | – | – | – | – | activity in vivo (clinical efficacy) (HIV [3]): insufficient; antiretroviral activity in vitro (HIV [4]): potent
CC(C)(C)NC(=O)[C@@H]1C[C@@H]2CCCC[C@@H]2CN1C[C@@H](O)[C@H](Cc1ccccc1)NC(=O)[C@H](CC(N)=O)NC(=O)c1ccc2ccccc2n1 [Saquinavir, saquinavir] | – | – | 3 | 5 | 4 | 5 | 5 | 1 | 3 | EC50 ratio (human plasma or serum protein vs 10% FCS), concentration range <5 nM [2]: 19; EC50 ratio (human plasma or serum protein vs 10% FCS), concentration range >5 μM [2]: 2; influence of AAG on the anti-HIV activity ([2]; different HIV-1 strains, AAG 1 mg/mL vs 10% FCS, FIG. 1): decreases with increasing inhibitor concentrations; EC50 (R13020): ~7 µM; EC50 (T13025): ~0.166 µM; EC50 (T13127): ~0.71 µM
CC(C)CN(C[C@@H](O)[C@H](Cc1ccccc1)NC(=O)O[C@H]1CCOC1)S(=O)(=O)c1ccc(N)cc1 [amprenavir] | ~0.412 µM | ~0.042 µM | – | 38 | 14 | 12 | 25 | 1 | 2 | EC50 ratio (human plasma or serum protein vs 10% FCS), concentration range 5 μM-500 nM [2, 6]: 5; EC50 (R13127): ~2 µM
CC(C)CN(C[C@@H](O)[C@H](Cc1ccccc1)NC(=O)OC1CO[C@H]2OCC[C@@H]12)S(=O)(=O)c1ccc(N)cc1 (some centres unmarked) [compound 1] | – | – | 7 | 24 | 12 | – | – | – | – | EC50 ratio (human plasma or serum protein vs 10% FCS), concentration range <5 nM [2]: 85; EC50 ratio (human plasma or serum protein vs 10% FCS), concentration range >5 μM [2]: 4
